Among the data in US9359308B2, “Pyrazine kinase inhibitors” (Portola Pharmaceuticals, Inc., priority 2011, dated 2016) are IC50 values, retold here.

Structures are written as SMILES.

This assay has as its target T1, full length active recombinant SYK enzyme (Homo sapiens, UniProt P43405).
T1 construct: full length active recombinant SYK enzyme (Millipore, Calif.); purchased Millipore
The assay can be described thus: Inhibition of Syk tyrosine phosphorylation activity (LANCE TR-FRET kinase assay). The format is biochemical. The conditions noted are these: activity in the Syk assays, class symbols. The method, boiled down:
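IC50 was derived by non-linear regression of TR-FRET signal (Eu-W1024-PY100 donor, streptavidin-APC acceptor) read 1 h after EDTA quench. The kinase step ran 1 h at room temperature with 1 nM full-length SYK, 550 nM biotinylated DEEDYESP substrate and 100 μM ATP in Tris pH 7.5/MgCl2/DTT at 3% final DMSO.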
A general note: In TR-FRET formats the signal depends on donor and acceptor labels being close together.

A word on the IC50: it is the midpoint of a concentration-inhibition curve. With `CC(C)[C@@H](Nc1cnc(C(N)=O)c(Nc2ccc3c(c2)OCO3)n1)C(N)=O` [Example 146, (R)-5-(1-amino-3-methyl-1-oxobutan-2-ylamino)-3-(benzo[d][1,3]dioxol-5-ylamino)pyrazine-2-carboxamide], the IC50 is 100 to 1000 nM.

For the molecule `CC(C)C[C@@H](Nc1cnc(C(N)=O)c(Nc2ccc(-n3cccn3)cc2)n1)C(N)=O` [Example 71], the IC50 lay within 10 to 100 nM.

For `Cc1cccc(Nc2nc(N[C@@H]3CCCC[C@@H]3N)cnc2C(N)=O)c1` [Example 275, 5-((1R,2S)-2-aminocyclohexylamino)-3-(m-tolylamino)pyrazine-2-carboxamide], the IC50 is below 1 nM.

In the case of `NC(=O)c1ncc(N[C@@H]2CCCC[C@@H]2N)nc1Nc1cnc2cc(F)ccc2c1` [Example 201, 5-((1R,2S)-2-aminocyclohexylamino)-3-(7-fluoroquinolin-3-ylamino)pyrazine-2-carboxamide], the IC50 was 1 to 10 nM.

On to `COc1ccc(C(=O)N(C)C)cc1Nc1nc(N[C@@H]2CCCC[C@@H]2N)cnc1C(N)=O` [Example 290, 5-((1R,2S)-2-aminocyclohexylamino)-3-(5-(dimethylcarbamoyl)-2-methoxyphenylamino)pyrazine-2-carboxamide], for which the IC50 fell in the range of 100 to 1000 nM.

As to `CC[C@@H](Nc1nc(Nc2cc(C)ns2)c(C(N)=O)nc1Cl)C(N)=O` [Example 137, (R)-5-((1-amino-1-oxobutan-2-yl)amino)-6-chloro-3-((3-methylisothiazol-5-yl)amino)pyrazine-2-carboxamide], the IC50 lay within 10 to 100 nM.

As for `CC[C@@H](Nc1cnc(C(N)=O)c(Nc2ccc(-c3cccnc3)cc2)n1)C(N)=O` [Example 29, (R)-5-(1-amino-1-oxobutan-2-ylamino)-3-(4-(pyridin-3-yl)phenylamino)pyrazine-2-carboxamide], the IC50 was in the range of 1 to 10 nM.

Take `CCOc1ccc(Nc2nc(N[C@@H]3CCCC[C@@H]3N)cnc2C(N)=O)cn1` [Example 308, 5-((1R,2S)-2-aminocyclohexylamino)-3-(6-ethoxypyridin-3-ylamino)pyrazine-2-carboxamide]: the IC50 lay in the range of 1 to 10 nM.

Turning to `NC(=O)c1ncc(N[C@@H]2CCCC(F)(F)[C@@H]2N)nc1Nc1ccc2ncccc2c1` [Example 14, 5-((1R,2R)-2-amino-3,3-difluorocyclohexylamino)-3-(quinolin-6-ylamino)pyrazine-2-carboxamide], the IC50 fell in the range of 1 to 10 nM.

With `CN(C)c1nc2ccc(Nc3nc(N[C@@H]4CCCC[C@@H]4N)cnc3C(N)=O)cc2o1` [Example 325, 5-((1R,2S)-2-aminocyclohexylamino)-3-(2-(dimethylamino)benzo[d]oxazol-6-ylamino)pyrazine-2-carboxamide], the IC50 is 1 to 10 nM.

As to `CC[C@@H](Nc1cnc(C(N)=O)c(Nc2cncc(C)c2)n1)C(N)=O` [Example 177, (R)-5-(1-amino-1-oxobutan-2-ylamino)-3-(5-methylpyridin-3-ylamino)pyrazine-2-carboxamide], the IC50 was in the range of 10 to 100 nM.

As for `COc1cncc(Nc2nc(N[C@@H]3CCCC[C@@H]3N)cnc2C(N)=O)c1` [Example 309, 5-((1R,2S)-2-aminocyclohexylamino)-3-(5-methoxypyridin-3-ylamino)pyrazine-2-carboxamide], the half-maximal inhibitory concentration (IC50) lay in the range of 1 to 10 nM.

`NC(=O)c1ncc(N[C@H](CC(F)F)C(N)=O)nc1Nc1cnc2cccnc2c1` [Example 127, (R)-3-((1,5-naphthyridin-3-yl)amino)-5-((1-amino-4,4-difluoro-1-oxobutan-2-yl)amino)pyrazine-2-carboxamide]: the IC50 was 1 to 10 nM.

For `CC(C)[C@@H](Nc1cnc(C(N)=O)c(Nc2ccc3cnccc3c2)n1)C(N)=O` [Example 189, (R)-5-(1-amino-3-methyl-1-oxobutan-2-ylamino)-3-(isoquinolin-6-ylamino)pyrazine-2-carboxamide], the IC50 fell in the range of 1 to 10 nM.

Consider `COc1cc(Nc2nc(N[C@H](CC(C)(C)C)C(N)=O)cnc2C(N)=O)ccn1` [Example 256, (R)-5-(1-amino-4,4-dimethyl-1-oxopentan-2-ylamino)-3-(2-methoxypyridin-4-ylamino)pyrazine-2-carboxamide], for which the IC50 was 1 to 10 nM.
